Measurements taken from ChEMBL document CHEMBL1201862, “PubChem BioAssay data set” (2004).
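How tested: cells in 96-well plates exposed to compound for 48 hours at five concentrations. GI50 = concentration required for 50% inhibition of growth.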 Activity calls are given as the source filed them. Cut-off read from the data, not from the text of the source: active = GI50 up to about 1.1 µM and inactive = higher.

Legend:
Assay in all cases: NCI tumour cell line growth inhibition, 48 h
BT-549 = test system: BT-549
KM12 = test system: KM12
HT-29 = test system: HT-29
MOLT-4 = test system: MOLT-4
RXF 393 = test system: RXF 393
786-0 = test system: 786-0
OVCAR-3 = test system: OVCAR-3
U-251 = test system: U-251
M14 = test system: M14
HL-60 = test system: HL-60
NCI-H522 = test system: NCI-H522
NCI/ADR-RES = test system: NCI/ADR-RES
A498 = test system: A498
SK-MEL-2 = test system: SK-MEL-2
OVCAR-5 = test system: OVCAR-5
HCT-116 = test system: HCT-116
DU-145 = test system: DU-145
UACC-62 = test system: UACC-62
CAKI-1 = test system: CAKI-1
PC-3 = test system: PC-3

SMILES	GI50 (BT-549)	GI50 (KM12)	GI50 (HT-29)	GI50 (MOLT-4)	GI50 (RXF 393)	GI50 (786-0)	GI50 (OVCAR-3)	GI50 (U-251)	GI50 (M14)	GI50 (HL-60)	GI50 (NCI-H522)	GI50 (NCI/ADR-RES)	GI50 (A498)	GI50 (SK-MEL-2)	GI50 (OVCAR-5)	GI50 (HCT-116)	GI50 (DU-145)	GI50 (UACC-62)	GI50 (CAKI-1)	GI50 (PC-3)
CCCCCCCCOC(=O)c1cc([N+](=O)[O-])c(Sc2[nH]cnc3ncnc2-3)c([N+](=O)[O-])c1	2.95 µM (inactive)	3.45 µM (inactive)	1.77 µM (inactive)	0.857 µM (active)	7.69 µM (inactive)	1.47 µM (inactive)	1.01 µM (active)	3.44 µM (inactive)	0.56 µM (active)	1.52 µM (inactive)	1.05 µM (active)	3 µM (inactive)	17 µM (inactive)	4.53 µM (inactive)	3.15 µM (inactive)	1.84 µM (inactive)	1.27 µM (inactive)	2.9 µM (inactive)	3.37 µM (inactive)	3.21 µM (inactive)
CN(C)c1ccc(/C=C(\NC(=O)c2ccccc2)c2nc3ccccc3c(=O)o2)cc1	> 100 µM (inactive)	> 100 µM (inactive)	> 100 µM (inactive)	> 100 µM (inactive)	> 100 µM (inactive)	> 100 µM (inactive)	> 100 µM (inactive)	82 µM (inactive)	> 100 µM (inactive)	> 100 µM (inactive)	46.7 µM (inactive)	> 100 µM (inactive)	> 100 µM (inactive)	> 100 µM (inactive)	> 100 µM (inactive)	> 100 µM (inactive)	> 100 µM (inactive)	> 100 µM (inactive)	> 100 µM (inactive)	> 100 µM (inactive)
Fc1ccc(OCc2nc3cc(C(F)(F)F)ccc3nc2-c2ccccc2)cc1	> 46.1 µM (inactive)	> 100 µM (inactive)	21.4 µM (inactive)	13.2 µM (inactive)	> 100 µM (inactive)	> 100 µM (inactive)	> 100 µM (inactive)	> 100 µM (inactive)	> 94 µM (inactive)	> 47 µM (inactive)	28.4 µM (inactive)	98.2 µM (inactive)	> 100 µM (inactive)	> 100 µM (inactive)	> 100 µM (inactive)	99.5 µM (inactive)	> 100 µM (inactive)	> 100 µM (inactive)	> 100 µM (inactive)	> 100 µM (inactive)
COc1cc(C2OC[C@@H]3C(=O)OC[C@H]23)cc(O)c1OC (stereo not given in full)	> 100 µM (inactive)	> 100 µM (inactive)	> 100 µM (inactive)	> 100 µM (inactive)	> 100 µM (inactive)	> 100 µM (inactive)	> 100 µM (inactive)	> 100 µM (inactive)	> 100 µM (inactive)	> 100 µM (inactive)	> 100 µM (inactive)	> 100 µM (inactive)	> 100 µM (inactive)	> 100 µM (inactive)	> 100 µM (inactive)	> 100 µM (inactive)	> 100 µM (inactive)	> 100 µM (inactive)	> 100 µM (inactive)	> 100 µM (inactive)
CS/C(Nc1ccccc1)=C1\C(=O)N(c2ccccc2)N=C1C	> 100 µM (inactive)	> 100 µM (inactive)	> 100 µM (inactive)	> 100 µM (inactive)	> 100 µM (inactive)	> 100 µM (inactive)	> 100 µM (inactive)	> 100 µM (inactive)	> 100 µM (inactive)	> 100 µM (inactive)	35.1 µM (inactive)	> 100 µM (inactive)	95.7 µM (inactive)	> 100 µM (inactive)	> 100 µM (inactive)	> 100 µM (inactive)	> 100 µM (inactive)	> 100 µM (inactive)	52 µM (inactive)	> 100 µM (inactive)
Cc1c/c(=N/NC(=O)c2ccncc2)n2nc(N)sc2n1	> 100 µM (inactive)	> 100 µM (inactive)	> 100 µM (inactive)	> 100 µM (inactive)	> 100 µM (inactive)	> 100 µM (inactive)	> 100 µM (inactive)	> 100 µM (inactive)	> 100 µM (inactive)	> 100 µM (inactive)	> 100 µM (inactive)	> 100 µM (inactive)	> 100 µM (inactive)	> 100 µM (inactive)	> 100 µM (inactive)	> 100 µM (inactive)	> 100 µM (inactive)	> 100 µM (inactive)	> 100 µM (inactive)	> 100 µM (inactive)
Cn1c(=O)c2c(nc3n2CC(C(=O)O)N3)n(C)c1=O (stereo not given)	> 100 µM (inactive)	> 100 µM (inactive)	> 100 µM (inactive)	0.036 µM (active)	> 100 µM (inactive)	> 100 µM (inactive)	> 100 µM (inactive)	> 100 µM (inactive)	> 100 µM (inactive)	> 100 µM (inactive)	> 100 µM (inactive)	> 100 µM (inactive)	> 100 µM (inactive)	> 100 µM (inactive)	> 100 µM (inactive)	> 100 µM (inactive)	> 100 µM (inactive)	> 100 µM (inactive)	> 100 µM (inactive)	> 100 µM (inactive)
CCN(CC)CCNc1nc2ccc([N+](=O)[O-])cc2[n+]([O-])n1	73.8 µM (inactive)	26.2 µM (inactive)	7.91 µM (inactive)	18.9 µM (inactive)	46.7 µM (inactive)	20.1 µM (inactive)	30.3 µM (inactive)	21.9 µM (inactive)	16.2 µM (inactive)	3.44 µM (inactive)	28.1 µM (inactive)	24.3 µM (inactive)	28.4 µM (inactive)	15.2 µM (inactive)	16 µM (inactive)	15.7 µM (inactive)	34.2 µM (inactive)	16.6 µM (inactive)	41.9 µM (inactive)	20.1 µM (inactive)
COC(C)(C)OCCN1CCN(CCN2C3=C(C=C(C(C)=O)C3)Sc3ccccc32)CC1	21.6 µM (inactive)	16.7 µM (inactive)	18 µM (inactive)	17.3 µM (inactive)	17.9 µM (inactive)	19.1 µM (inactive)	22.2 µM (inactive)	18.5 µM (inactive)	20.3 µM (inactive)	16.6 µM (inactive)	17.5 µM (inactive)	20.7 µM (inactive)	17.6 µM (inactive)	20.2 µM (inactive)	25.4 µM (inactive)	18 µM (inactive)	21.8 µM (inactive)	15.3 µM (inactive)	19.2 µM (inactive)	24.8 µM (inactive)
Cc1ccnc(NC(=S)Nc2cccc(Cl)c2)c1	> 100 µM (inactive)	> 100 µM (inactive)	> 100 µM (inactive)	> 100 µM (inactive)	> 100 µM (inactive)	> 100 µM (inactive)	> 100 µM (inactive)	> 100 µM (inactive)	> 100 µM (inactive)	> 100 µM (inactive)	0.02 µM (active)	> 100 µM (inactive)	> 100 µM (inactive)	> 100 µM (inactive)	> 100 µM (inactive)	> 100 µM (inactive)	> 100 µM (inactive)	> 100 µM (inactive)	> 100 µM (inactive)	> 100 µM (inactive)
O=C(O)C1OC1(c1cccc(Cl)c1)c1ccccc1Cl (stereo not given)	18.8 µM (inactive)	29.6 µM (inactive)	25.9 µM (inactive)	27.5 µM (inactive)	27.4 µM (inactive)	43.1 µM (inactive)	16.1 µM (inactive)	11.1 µM (inactive)	18.8 µM (inactive)	17.2 µM (inactive)	24.5 µM (inactive)	18.1 µM (inactive)	79.1 µM (inactive)	15.7 µM (inactive)	58.7 µM (inactive)	19 µM (inactive)	26.1 µM (inactive)	14.8 µM (inactive)	20.5 µM (inactive)	21.8 µM (inactive)
O=C(Nc1ccc(Cl)cc1Cl)C1C(=O)OC2(CCCCC2)OC1=O	10.7 µM (inactive)	6.43 µM (inactive)	11.5 µM (inactive)	5.15 µM (inactive)	5.36 µM (inactive)	12.2 µM (inactive)	3.18 µM (inactive)	5.32 µM (inactive)	8.77 µM (inactive)	5.16 µM (inactive)	12 µM (inactive)	4.93 µM (inactive)	12.8 µM (inactive)	2.93 µM (inactive)	9.12 µM (inactive)	6.08 µM (inactive)	10.5 µM (inactive)	11 µM (inactive)	4.78 µM (inactive)	3.45 µM (inactive)
O=C(O)C(Cc1c[nH]c2ccccc12)C(=O)NO (stereo not given)	> 100 µM (inactive)	> 100 µM (inactive)	> 100 µM (inactive)	> 100 µM (inactive)	> 100 µM (inactive)	> 100 µM (inactive)	96.8 µM (inactive)	49.8 µM (inactive)	> 100 µM (inactive)	53.7 µM (inactive)	> 100 µM (inactive)	> 100 µM (inactive)	> 100 µM (inactive)	> 100 µM (inactive)	> 100 µM (inactive)	> 100 µM (inactive)	> 100 µM (inactive)	> 100 µM (inactive)	> 100 µM (inactive)	64.1 µM (inactive)
CCCCCC(=O)Nc1[nH]cnc1C(N)=O	> 100 µM (inactive)	> 100 µM (inactive)	> 100 µM (inactive)	> 100 µM (inactive)	> 100 µM (inactive)	> 100 µM (inactive)	> 100 µM (inactive)	> 100 µM (inactive)	> 100 µM (inactive)	> 100 µM (inactive)	> 100 µM (inactive)	> 100 µM (inactive)	> 100 µM (inactive)	> 100 µM (inactive)	> 100 µM (inactive)	> 100 µM (inactive)	> 100 µM (inactive)	> 100 µM (inactive)	> 100 µM (inactive)	> 100 µM (inactive)
